Results as given in patent publication US9597406B2, “Controlled release method for a pharmaceutical composition composed of chelating complex micelles” (Original BioMedicals Co., Ltd, priority 2012, dated 2017).

Legend:
[1] = system: mouse embryonic liver cells (BNLCL.2); assay: MTT cell viability test of doxorubicin CCM (FePD) with and without deferoxamine; format: cell-based; details: 4 μM, 2 h incubation, then 24 h fresh medium, BNLCL.2 cells, 4 µM
Method: (§1) The cell viability test of doxorubicin CCM (FePD) was examined with and without adding metal chelator deferoxamine. MTT (3-(4,5-cimethylthiazol-2-yl)-2,5-diphenyl tetrazolium bromide) assay was used to assess the cytotoxicity of cells treated with FePD and deferoxamine.
(§2) The mouse embryonic liver cells (BNLCL.2) (100 μL) were inoculated onto a 96-well plate with density 1×10^5 cells/mL and cultured for 24 hr at 37° C. with 5% CO2 before subjecting to the test. After removal of supernatant, 100 μL of each sample was added to the cells and incubated for 2 hours (Table 1). The samples were sterilized by using 0.22 μm filters prior to treating the cells. The plate was then washed with PBS (phosphate buffered saline) and incubated with fresh medium for 24 hours. After removal of supernatant and washed with PBS, 10 μL MTT solution was added to the cells and incubated for 4 hours. The absorbance at 570 nm was measured (BioTek, Synergy TM2, USA).

[2] = as above; format: cell-based, mouse; details: mouse, BNLCL.2 mouse embryonic liver cells, 2 h incubation, BNLCL.2 cells
Method: as §1, §2

Row | SMILES | Cell viability (%) [1] [%] | viability at 2 h, 4 μM ([2]; 4 μM, then 24 h fresh medium) [%] | viability at 2 h, 4 μM ([2]; Group G: 4 μM + deferoxamine (13.5 μM)) [%] | viability at 2 h, 13.5 µM ([2]; 13.5 μM, then 24 h fresh medium) [%]
1 | COc1cccc2c1C(=O)c1c(O)c3c(c(O)c1C2=O)C[C@@](O)(C(=O)CO)C[C@@H]3O[C@H]1C[C@H](N)[C@H](O)[C@H](C)O1 [doxorubicin] | 74.7292 | 74.7 | 78.3 | 
2 | CC(=O)N(O)CCCCCNC(=O)CCC(=O)N(O)CCCCCNC(=O)CCC(=O)N(O)CCCCCN [deferoxamine] |  |  |  | 104
